Experimental data: ChEMBL document CHEMBL5154804, “Species-Selective Targeting of Fungal Hsp90: Design, Synthesis, and Evaluation of Novel 4,5-Diarylisoxazole Derivatives for the Combination Treatment of Azole-Resistant Candidiasis” (J Med Chem, 2022)

Columns and labels:
[1] = tested on: Candida albicans; assay: Synergistic antifungal activity against fluconazole-resistant Candida albicans 904 assessed as inhibition of fungal growth in presence of fluconazole by checker board microdilution assay; format: functional; also: test concentration or dose not given here
[2] = tested on: Candida albicans; assay: Synergistic antifungal activity against fluconazole-resistant Candida albicans 632 assessed as inhibition of fungal growth in presence of fluconazole by checker board microdilution assay; format: functional
[3] = tested on: Candida albicans; assay: Synergistic antifungal activity against fluconazole-resistant Candida albicans 901 assessed as inhibition of fungal growth in presence of fluconazole by checker board microdilution assay; format: functional
[4] = tested on: Candida albicans; assay: Synergistic antifungal activity against fluconazole-resistant Candida albicans 100 assessed as inhibition of fungal growth in presence of fluconazole by checker board microdilution assay; format: functional
[5] = tested on: Candida albicans; assay: Synergistic antifungal activity against fluconazole-resistant Candida albicans 103 assessed as inhibition of fungal growth in presence of fluconazole by checker board microdilution assay; format: functional
[6] = tested on: Candida albicans; assay: Synergistic antifungal activity against fluconazole-resistant Candida albicans 311 assessed as inhibition of fungal growth in presence of fluconazole by checker board microdilution assay; format: functional; also: test concentration or dose not given here
[7] = target: Heat shock protein HSP90 (Homo sapiens, UniProt P07900+P08238); assay: Binding affinity to human Hsp90 expressed in Escherichia coli by SPR assay
[8] = Binding affinity to recombinant Candida albicans Hsp90 NBD expressed in Escherichia coli by SPR assay

With `CCNC(=O)c1noc(-c2cc(-c3ccccc3F)c(O)cc2O)c1-c1ccc(CN2CCOCC2)cc1` the MIC80 [1] was greater than 64 µg/mL, the MIC80 [2] was greater than 64 µg/mL and the MIC80 [3] was greater than 64 µg/mL. For the same compound, the MIC80 [4] was greater than 64 µg/mL, the MIC80 [5] was greater than 64 µg/mL and the MIC80 [6] was greater than 64 µg/mL.

In the case of `CCNC(=O)c1noc(-c2cc(-c3ccccc3C)c(O)cc2O)c1-c1ccc(CN2CCOCC2)cc1`, the Kd [7] is reported as greater than 25 µM, the Kd [8] is reported as greater than 25 µM and the MIC80 [1] is reported as greater than 64 µg/mL. For the same compound, the MIC80 [2] was greater than 64 µg/mL, the MIC80 [3] was greater than 64 µg/mL and the MIC80 [4] was greater than 64 µg/mL. For the same compound, the MIC80 [5] was greater than 64 µg/mL and the MIC80 [6] was greater than 64 µg/mL.

For `CCNC(=O)c1noc(-c2cc(-c3ccc(C)cc3)c(O)cc2O)c1-c1ccc(CN2CCN(C)CC2)cc1`, the MIC80 [1] was greater than 64 µg/mL, the MIC80 [2] was greater than 64 µg/mL and the MIC80 [3] was 64 µg/mL. The MIC80 [4] was greater than 64 µg/mL, the MIC80 [5] was greater than 64 µg/mL and the MIC80 [6] was greater than 64 µg/mL.

In the case of `CCNC(=O)c1noc(-c2cc(-c3ccc(C)cc3)c(O)cc2O)c1-c1ccc(CN2CCSCC2)cc1`, the MIC80 [1] is reported as 8 µg/mL, the MIC80 [2] is reported as 0.5 µg/mL and the MIC80 [3] is reported as 0.5 µg/mL. It also gave an MIC80 [4] of 2 µg/mL, an MIC80 [5] of 1 µg/mL and an MIC80 [6] of 2 µg/mL.

With `CCNC(=O)c1noc(-c2cc(-c3ccc(C)cc3)c(O)cc2O)c1-c1ccc(CN2CC(C)CC(C)C2)cc1` (centres undefined) the MIC80 [1] was 1 µg/mL, the MIC80 [2] was 2 µg/mL and the MIC80 [3] was 0.5 µg/mL. For the same compound, the MIC80 [4] was 4 µg/mL, the MIC80 [5] was 16 µg/mL and the MIC80 [6] was 2 µg/mL.

Work on `CCNC(=O)c1noc(-c2cc(-c3ccccc3Cl)c(O)cc2O)c1-c1ccc(CN2CCOCC2)cc1` yielded an MIC80 [1] greater than 64 µg/mL, an MIC80 [2] greater than 64 µg/mL and an MIC80 [3] greater than 64 µg/mL. It also gave an MIC80 [4] greater than 64 µg/mL, an MIC80 [5] greater than 64 µg/mL and an MIC80 [6] greater than 64 µg/mL.

Compound `CCNC(=O)c1noc(-c2cc(-c3ccc(C)cc3)c(O)cc2O)c1-c1ccc(CN2CCNC(=O)C2)cc1` has an MIC80 [1] greater than 64 µg/mL, an MIC80 [2] greater than 64 µg/mL and an MIC80 [3] greater than 64 µg/mL. It also gave an MIC80 [4] greater than 64 µg/mL, an MIC80 [5] greater than 64 µg/mL and an MIC80 [6] greater than 64 µg/mL.
